Source: patent US7727988B2, “Azabicyclo[3.1.0]hex-3-yl}alkyl)pyrimidinedione” (Glaxo Group Limited, priority 2006, dated 2010)

Molecular target: T1, dopamine D3 receptor (Homo sapiens, UniProt P35462)
T1 construct: host or cells: Chinese Hamster Ovary (CHO) cells, membranes
Experiment: GTPS scintillation proximity assay (GTPS-SPA), CHO_D3 membranes, antagonist format
Assay type: biochemical
Protocol: Functional potency of compounds of this invention can be measured by the following GTPS scintillation proximity assay (GTPS-SPA). Cells used in the study are Chinese Hamster Ovary (CHO) Cells. • Cell Line • CHO_D2 • CHO_D3 • Dopamine CHO D3 (Biocat no 1060) transduced with bacmam G0 G-protein (Biocat no 97886)
All steps are performed at 4° C. Cell membranes are prepared as follows. Cell pellets are resuspended in 10 volumes of 50 mM HEPES, 1 mM EDTA pH 7.4, using KOH. Cells are homogenised within a glass waring blender for 2 bursts of 15 secs in 200 mls of buffer (50 mM HEPES, 1 mM leupeptin, 25 μg/ml bacitracin, 1 mM EDTA, 1 mM PMSF, 2 μM Pepstatin A). (the latter 2 reagents added as fresh ×100 and ×500 stocks respectively in ethanol). The blender is plunged into ice for 5 mins after the first burst and 10-40 mins after the final burst to allow foam to dissipate. The material is then spun at 500 g for 20 mins and the supernatant spun for 36 mins at 48.000 g. The pellet is resuspended in the same buffer as above but without PMSF and Pepstatin A. The material is then forced through a 0.6 mm needle, made up to the required volume, (usually ×4 the volume of the original cell pellet), aliquoted and stored frozen at −80° C.
The final top concentration of test drug is 3 μM in the assay and 11 points serial dilution curves 1:4 in 100% DMSO are carried out using a Biomek FX. The test drug at 1% (0.5 ul) total assay volume (TAV) is added to a solid, white Greiner polypropylene 384-well assay plate. 50% TAV (25 μl) of precoupled (for 60 mins at RT) membranes, 5 μg/well, and Wheatgerm Agglutinin Polystyrene Scintillation Proximity Assay beads (RPNQ0260, Amersham), 0.25 mg/well, in 20 mM HEPES (pH 7.4, 100 mM NaCl, 10 mM MgCl2), 60 μg/mL saponin and 30 uM GDP is added. The third addition is a 20% TAV (10 ul) addition of either buffer, (agonist format) or EC80 final assay concentration of agonist, Quinelorane, prepared in assay buffer (antagonist format). The assay is started by the addition of 29% TAV (15 ul) of GTP[35S] 0.38 nM final (37 MBq/mL, 1160 Ci/mmol, Amersham). After all additions assay plates are spun down for 1 min at 1,000 rpm. The final assay cocktail ([…]) is incubated at room temperature to equilibrate for 3-6 hours before reading on a ViewLux™ (613/55 filter) luminescence imager 5 min/plate.
The effect of the test drug over the basal generates fpKi values of test drug are calculated from the IC50 generated by “antagonist format” experiment, using Cheng & Prusoff equation: fKi=IC50/1+([A]/EC50) where: [A] is the concentration of the agonist Quinelorane in the assay and EC50 is the Quinelorane EC50 value obtained in the same experiment. fpKi is defined as −logfKi. • pKi results are only estimated to be accurate to about 0.3-0.5.

T1 sequence (P35462 whole entry, species assumed): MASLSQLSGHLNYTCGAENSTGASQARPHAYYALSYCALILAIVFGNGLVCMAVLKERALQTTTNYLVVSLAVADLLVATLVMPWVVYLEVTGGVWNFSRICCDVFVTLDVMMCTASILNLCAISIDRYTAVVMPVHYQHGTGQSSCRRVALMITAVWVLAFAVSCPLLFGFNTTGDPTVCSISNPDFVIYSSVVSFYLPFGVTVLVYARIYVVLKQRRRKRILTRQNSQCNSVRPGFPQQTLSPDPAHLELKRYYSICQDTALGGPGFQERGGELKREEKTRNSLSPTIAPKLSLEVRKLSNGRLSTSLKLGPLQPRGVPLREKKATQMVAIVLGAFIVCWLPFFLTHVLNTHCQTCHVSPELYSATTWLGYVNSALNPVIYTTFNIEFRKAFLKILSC

Compound: Cl.Cl.O=c1[nH]c(=O)n(CCCN2C[C@@H]3C[C@]3(c3ccc(C(F)(F)F)cc3)C2)cc1-c1cc(Cl)cnc1F [Example E43, 5-(5-chloro-2-fluoro-3-pyridinyl)-1-(3-{(1S,5R)-1-[4-(trifluoromethyl)phenyl]-3-azabicyclo[3.1.0]hex-3-yl}propyl)-2,4(1H,3H)-pyrimidinedione dihydrochloride]
- Selectivity for D3 over D2 receptors: 100 fold
